Results published in patent US8815921B2, “Active substance combination based on trifluorobutinyl compounds and exhibiting nematicidal and insecticidal properties” (priority 2003, dated 2014).
Where “and” joins values, the source holds several entries; their conditions need not be identical. Equal entries are not always repeated.

Assays:
Format in all cases: in vivo
[1] = test system: larvae of the mustard beetle (Phaedon cochleariae); assay: Phaedon-Larvae Test; conditions: cabbage leaf dip
Experimental: (§1) To produce a suitable preparation of active compound, 1 part by weight of active compound is mixed with the stated amounts of solvent and emulsifier, and the concentrate is diluted with emulsifier containing water to the desired concentration.
(§2) Cabbage leaves (Brassica oleracea) are treated by being dipped into the preparation of active compound of the desired concentration and are populated with larvae of the mustard beetle (Phaedon cochleariae) while the leaves are still moist. After the desired period of time, the kill in percent is determined. 100% means that all beetle larvae have been killed; 0% means that none of the beetle larvae has been killed. The kill rates determined are inserted into Colby's formula (see sheet 34).

[2] = test system: caterpillars of the diamondback moth (Plutella xylostella, sensitive strain); assay: Plutella Test, sensitive strain; conditions: for Kill rate [%] after 6 days: 20 ppm
Experimental: as §1
as §2, with “caterpillars” for “larvae”, “diamondback moth (Plutella xylostella, sensitive strain)” for “mustard beetle (Phaedon cochleariae)”, “caterpillars” for “beetle larvae”

[3] = test system: caterpillars of the army worm (Spodoptera frugiperda); assay: Spodoptera frugiperda Test
Experimental: as §1
as §2, with “caterpillars” for “larvae”, “army worm (Spodoptera frugiperda)” for “mustard beetle (Phaedon cochleariae)”, “caterpillars” for “beetle larvae”

[4] = test system: green peach aphid (Myzus persicae); assay: Myzus Test
Experimental: as §1
Cabbage leaves (Brassica oleracea), which are heavily infested by the green peach aphid (Myzus persicae) are treated by being dipped into the preparation of active compound of the desired concentration. After the desired period of time, the kill in % is determined. 100% means that all aphids have been killed; 0% means that none of the aphids has been killed. The kill rates determined are inserted into Colby's formula (see sheet 1).

O=[N+]([O-])NC1=NCCN1Cc1ccc(Cl)nc1 [imidacloprid]
Kill rate [%] after 3 days ([1]; 20 ppm): 45%
Kill rate [%] after 6 days [2]: 5%

CCOP(=S)(Oc1cnc(C(C)(C)C)nc1)OC(C)C (stereo not drawn) [tebupirimfos]
Kill rate [%] after 3 days ([2]; 0.8 ppm): 0%
Kill rate [%] after 6 days ([3]; 0.8 ppm): 0%
Kill rate [%] after 6 days ([4]; 20 ppm): 35%

O=S(=O)(CCC(F)=C(F)F)c1ncc(Cl)s1 [(IC)]
Kill rate [%] after 3 days ([1]; 500 ppm): 0%
Kill rate [%] after 3 days ([2]; 500 ppm, cabbage leaf dip): 0% and 5%
Kill rate [%] after 3 days ([3]; 500 ppm, cabbage leaf dip): 0%
Kill rate [%] after 6 days ([3]; 500 ppm): 20%
Kill rate [%] after 1 day ([4]; 100 ppm, cabbage leaf dip): 0%
Kill rate [%] after 6 days ([4]; 100 ppm): 0%

spinosad
Kill rate [%] after 3 days ([3]; 0.16 ppm): 60%

CCOC(=O)OC1=C(c2cc(C)ccc2C)C(=O)NC12CCC(OC)CC2 (stereo not drawn) [(IIA), carboxylic acid, 3-(2,5-dimethylphenyl)-8-methoxy-2-oxo-1-azaspiro[4.5]dec-3-en-4-yl ethyl ester, (9Cl)]
Kill rate [%] after 3 days ([2]; 4 ppm): 95%
Kill rate [%] after 6 days ([3]; 100 ppm): 30%
Kill rate [%] after 6 days ([4]; 4 ppm): 55%

CNC(=O)O/N=C/C(C)(C)SC [aldicarb]
Kill rate [%] after 3 days ([1]; 20 ppm): 35%
Kill rate [%] after 6 days [2]: 0%

CN/C(=N\[N+](=O)[O-])NCc1cnc(Cl)s1 [clothianidin]
Kill rate [%] after 3 days ([1]; 4 ppm): 15%
Kill rate [%] after 3 days ([3]; 4 ppm): 85%

Cc1c(F)c(F)c(COC(=O)[C@@H]2[C@H](/C=C(\Cl)C(F)(F)F)C2(C)C)c(F)c1F (racemic) [tefluthrin]
Kill rate [%] after 3 days ([1]; 4 ppm): 75%
Kill rate [%] after 3 days ([2]; 0.16 ppm): 20%
Kill rate [%] after 3 days ([3]; 0.8 ppm): 40%
Kill rate [%] after 1 day ([4]; 4 ppm): 0%

N#Cc1nn(-c2c(Cl)cc(C(F)(F)F)cc2Cl)c(N)c1[S+]([O-])C(F)(F)F (stereo not drawn) [fipronil]
Kill rate [%] after 6 days ([3]; 0.8 ppm): 0%
